Experimental data reported in BigSolDB 2.1.

Cc1cnc(C(=O)O)cn1
solubility (mole fraction)
Conditions	273.15 K	278.15 K	283.15 K	288.15 K	293.15 K	298.15 K	303.15 K	308.15 K	313.15 K
in 1,4-dioxane	–	–	–	1.88e-05	2.16e-05	2.48e-05	2.84e-05	3.29e-05	3.84e-05
in 2-butanone	5.8e-06	6.8e-06	8e-06	9.3e-06	1.06e-05	1.21e-05	1.39e-05	1.58e-05	1.79e-05
in acetone	6.7e-06	8e-06	9.3e-06	1.07e-05	1.21e-05	1.39e-05	1.56e-05	1.78e-05	2e-05
in acetonitrile	2.48e-06	2.92e-06	3.44e-06	4.01e-06	4.6e-06	5.34e-06	6.05e-06	6.88e-06	7.79e-06
in ethanol	1.09e-05	1.27e-05	1.49e-05	1.71e-05	1.97e-05	2.25e-05	2.57e-05	2.93e-05	3.33e-05
in ethyl acetate	4.31e-06	5.04e-06	5.82e-06	6.63e-06	7.5e-06	8.4e-06	9.45e-06	1.07e-05	1.2e-05
in isopropanol	7.8e-06	9.1e-06	1.04e-05	1.19e-05	1.36e-05	1.56e-05	1.78e-05	2.03e-05	2.28e-05
in methanol	8.5e-06	1e-05	1.16e-05	1.36e-05	1.56e-05	1.77e-05	2.01e-05	2.29e-05	2.57e-05
in n-butanol	9.4e-06	1.08e-05	1.25e-05	1.43e-05	1.65e-05	1.9e-05	2.19e-05	2.51e-05	2.87e-05
in n-propanol	1e-05	1.17e-05	1.36e-05	1.58e-05	1.82e-05	2.07e-05	2.34e-05	2.68e-05	3.06e-05
in toluene	9.7e-07	1.1e-06	1.25e-06	1.42e-06	1.65e-06	1.89e-06	2.18e-06	2.5e-06	2.89e-06
in water	3.32e-06	3.83e-06	4.46e-06	5.16e-06	5.86e-06	6.74e-06	7.7e-06	8.83e-06	1.01e-05
